Reference: ChEMBL document CHEMBL1142243, “Potent and selective alpha-ketoheterocycle-based inhibitors of the anandamide and oleamide catabolizing enzyme, fatty acid amide hydrolase” (J Med Chem, 2007)

Columns and labels:
Homo sapiens [1] = organism: Homo sapiens; assay: Selectivity for FAAH over KIAA1363
Homo sapiens [2] = organism: Homo sapiens; assay: Selectivity for FAAH over TGH
[3] = molecular target: Fatty-acid amide hydrolase 1 (Rattus norvegicus) (UniProt P97612); assay: Inhibition of rat recombinant FAAH expressed in Escherichia coli by [14C]oleamide breakdown
Liver carboxylesterase 1 = molecular target: T1, Liver carboxylesterase 1 (Homo sapiens, UniProt P23141); assay: Inhibition of TGH
T1 sequence (P23141 whole entry): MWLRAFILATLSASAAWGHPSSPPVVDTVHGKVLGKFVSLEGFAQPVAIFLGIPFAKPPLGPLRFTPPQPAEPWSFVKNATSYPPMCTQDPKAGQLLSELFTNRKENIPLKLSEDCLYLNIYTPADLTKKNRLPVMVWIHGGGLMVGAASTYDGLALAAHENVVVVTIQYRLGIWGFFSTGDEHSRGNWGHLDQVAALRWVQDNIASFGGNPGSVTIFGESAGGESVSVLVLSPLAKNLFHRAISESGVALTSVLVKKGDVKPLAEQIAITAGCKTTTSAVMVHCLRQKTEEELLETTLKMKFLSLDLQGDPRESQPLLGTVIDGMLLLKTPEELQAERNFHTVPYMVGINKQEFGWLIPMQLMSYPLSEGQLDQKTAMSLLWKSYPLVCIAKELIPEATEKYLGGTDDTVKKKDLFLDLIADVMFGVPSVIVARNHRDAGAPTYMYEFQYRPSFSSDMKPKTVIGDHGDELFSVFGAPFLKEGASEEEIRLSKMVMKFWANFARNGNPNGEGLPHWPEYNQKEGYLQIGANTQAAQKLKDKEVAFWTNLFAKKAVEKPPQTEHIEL

[4] = molecular target: T2, Neutral cholesterol ester hydrolase 1 (Homo sapiens, UniProt Q6PIU2); assay: Inhibition of KIAA1363
T2 sequence (Q6PIU2 whole entry): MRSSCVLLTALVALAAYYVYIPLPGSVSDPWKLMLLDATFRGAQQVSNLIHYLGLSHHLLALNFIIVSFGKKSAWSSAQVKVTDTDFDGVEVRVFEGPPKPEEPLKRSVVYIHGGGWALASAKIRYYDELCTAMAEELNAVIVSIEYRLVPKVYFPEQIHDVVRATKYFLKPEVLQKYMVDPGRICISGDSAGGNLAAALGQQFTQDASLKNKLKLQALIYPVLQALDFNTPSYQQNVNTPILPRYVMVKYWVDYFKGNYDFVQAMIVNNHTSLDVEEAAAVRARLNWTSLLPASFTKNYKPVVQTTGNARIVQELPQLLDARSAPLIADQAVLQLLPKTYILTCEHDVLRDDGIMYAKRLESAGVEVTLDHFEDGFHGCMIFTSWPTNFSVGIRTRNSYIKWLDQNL

[5] = molecular target: T3, Fatty-acid amide hydrolase 1 (Homo sapiens, UniProt O00519); assay: Inhibition of human FAAH expressed in COS7 cells by [14C]oleamide breakdown; type: cell-based, COS-7
T3 sequence (O00519 whole entry): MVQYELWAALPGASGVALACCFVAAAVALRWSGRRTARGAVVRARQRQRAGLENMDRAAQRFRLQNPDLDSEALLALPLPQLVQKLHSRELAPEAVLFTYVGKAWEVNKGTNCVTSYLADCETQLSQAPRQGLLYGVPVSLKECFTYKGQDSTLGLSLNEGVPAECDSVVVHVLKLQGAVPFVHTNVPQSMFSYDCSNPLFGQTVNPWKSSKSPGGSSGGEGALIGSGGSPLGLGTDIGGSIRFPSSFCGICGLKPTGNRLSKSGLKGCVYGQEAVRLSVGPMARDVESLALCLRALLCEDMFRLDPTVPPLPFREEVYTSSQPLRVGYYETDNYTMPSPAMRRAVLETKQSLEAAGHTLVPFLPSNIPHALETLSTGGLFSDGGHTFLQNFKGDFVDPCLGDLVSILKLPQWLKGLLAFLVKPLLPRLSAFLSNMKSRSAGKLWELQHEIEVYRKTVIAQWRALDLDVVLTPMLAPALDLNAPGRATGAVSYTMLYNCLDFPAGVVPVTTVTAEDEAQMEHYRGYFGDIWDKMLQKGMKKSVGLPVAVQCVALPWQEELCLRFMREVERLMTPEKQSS

Ratio IC50 (Homo sapiens [1])	Ratio IC50 (Homo sapiens [2])	IC50 [3]	IC50 (Liver carboxylesterase 1)	IC50 [4]	Ki [3]	Ki [5]	Structure (SMILES)
> 63000	125	0.0016 µM	0.2 µM	> 100 µM	0.0032 µM		O=C(CCCCCCc1ccccc1)c1ncc(-c2cc([N+](=O)[O-])ccn2)o1
> 40000	240	0.0025 µM	0.6 µM	> 100 µM	0.002 µM		O=C(CCCCCCc1ccccc1)c1ncc(-c2cc(F)ccn2)o1
70	0.5	0.19 µM	0.1 µM	13 µM			O=C(CCCCCCc1ccccc1)c1ncc(Br)o1
> 67000	1300	0.0015 µM	2 µM	> 100 µM	0.0035 µM		O=C(CCCCCCc1ccccc1)c1ncc(-c2cc(C(F)(F)F)ccn2)o1

More lines, now with the values behind:

Structure (SMILES)	Ratio IC50 (Homo sapiens [1])	Ratio IC50 (Homo sapiens [2])	IC50 [3]	IC50 (Liver carboxylesterase 1)	IC50 [4]	Ki [3]	Ki [5]
NC(=O)c1cnc(C(=O)CCCCCCc2ccccc2)o1	> 300	20	0.35 µM	7 µM	> 100 µM		
O=C(O)c1ccc(-c2cnc(C(=O)CCCCCCc3ccccc3)o2)o1	> 120	> 120	0.85 µM	> 100 µM	> 100 µM	0.015 µM	
Cc1ccnc(-c2cnc(C(=O)CCCCCCc3ccccc3)o2)c1	> 100000	2000	0.001 µM	2 µM	> 100 µM	0.0006 µM	
Nc1ccnc(-c2cnc(C(=O)CCCCCCc3ccccc3)o2)c1	> 300	100	0.34 µM	34 µM	> 100 µM	0.025 µM	
NS(=O)(=O)c1cccc(-c2cnc(C(=O)CCCCCCc3ccccc3)o2)c1	> 200	0.5	0.4 µM	0.2 µM	> 100 µM	0.002 µM	
O=C(O)c1ccc(-c2cnc(C(=O)CCCCCCc3ccccc3)o2)nc1	> 2000	60	0.05 µM	3 µM	> 100 µM	0.007 µM	0.008 µM
O=C(CCCCCCc1ccccc1)c1ncc(C(F)(F)F)o1	> 1300	3	0.077 µM	0.2 µM	> 100 µM		
O=C(CCCCCCc1ccccc1)c1ncc(C(=O)N2CCCCC2)o1	> 200	20	0.45 µM	8 µM	> 100 µM	0.008 µM	
